Source: patent publication US8404683B2, “Inhibitors of the interaction between MDM2 and P53” (Janssen Pharmaceutical N.V., priority 2004, dated 2013)

What follows are compounds tested on U87MG cells (assay: Proliferation assay (MTT-based) on U87MG tumour cells). Conditions: Homo sapiens, U-87 MG, 96 h, 4 days of incubation, negative log value of the IC50-value, read-out: cell proliferation pIC50 (converted).
Protocol: U87MG cells are human glioblastoma cells with wild type p53. In this cell line MDM2 tightly controls p53 expression.
Cellular activity of the compounds of formula (I) was determined on U87MG tumour cells using a colorimetric assay for cell toxicity or survival (see example C.2).
All compounds tested were dissolved in DMSO and further dilutions were made in culture medium. Final DMSO concentrations never exceeded 0.1% (v/v) in cell proliferation assays. Controls contained U87MG cells and DMSO without compound and blanks contained DMSO but no cells.
U87MG cells were seeded in 96-well cell culture plates at 3000 cells/well/100 μl. 24 hours later, medium was changed and compound and/or solvent were added to a final volume of 200 μl. Following 4 days of incubation, medium was replaced by 200 μl fresh medium and cell growth was assessed using a MTT-based assay. Therefore, 25 μl of the MTT solution (0.5% MTT research grade from Serva in phosphate-buffered saline) was added to each well and the cells were further incubated for 2 hours at 37° C. The medium was then carefully aspirated and the blue MTT-formazan product was dissolved by adding to each well 25 μl 0.1 M glycin and 100 μl DMSO. The plates were shaken for another 10 min on a micro plate shaker before reading absorbance at 540 nm by a Biorad micro plate reader.
Within an experiment, the results for each experimental condition are the mean of 3 replicate wells. For initial screening purposes, compounds were tested at a single fixed concentration of 10^−5 M. For active compounds, the experiments were repeated to establish full concentration-response curves. For each experiment, controls (containing no drug) and a blank incubation (containing no cells or drugs) were run in parallel. The blank value was subtracted from all control and sample values. For each sample, the mean value for cell growth (in absorbance units) was expressed as a percentage of the mean value for cell growth of the control. When appropriate, IC50-values (concentration of the drug, needed to reduce cell growth to 50% of the control) were computed using probit analysis for graded data (Finney, D. J., Probit Analyses, 2nd Ed. Chapter 10, Graded Responses, Cambridge University Press, Cambridge 1962). Herein the effects of test compounds are expressed as pIC50 (the negative log value of the IC50-value) (see table F-2).

Point of comparison: `FC(F)(F)c1cccc2c(Nc3ccc(NCCc4c[nH]c5ccccc45)cc3)ccnc12` [Compound 31], IC50 1260 nM. Against it:
- c1ccc2c(Nc3ccc(NCCc4c[nH]c5ccccc45)cc3)ccnc2c1 [Compound 1] — lower, < 10 nM
- CCOc1cc(Nc2ccncc2)ccc1NCCc1c[nH]c2ccccc12 [Compound 2] — 20-fold lower, 63.1 nM
- c1ccc2c(CCNc3ccc(Nc4ccnc5c4CCC5)cc3)c[nH]c2c1 [Compound 4] — 130-fold lower, 10 nM
- c1cncc(Nc2ccc(NCCc3c[nH]c4ccccc34)cc2)c1 [Compound 6] — 2.5-fold higher, 3160 nM
- Cn1cc(CCN(c2ccncc2)c2ccc(Nc3ccncc3)cc2)c2ccccc21 [Compound 10] — the same, 1260 nM
- Cc1cc(Nc2ccc(NCCc3c[nH]c4ccccc34)cc2)c2ccccc2n1 [Compound 12] — 100-fold lower, 12.6 nM
- COc1ccc2c(CCNc3ccc(Nc4ccnc5ccccc45)cc3)c[nH]c2c1 [Compound 13] — 50-fold lower, 25.1 nM
- OCc1cc(Nc2ccc(NCCc3c[nH]c4ccccc34)cc2)c2ccccc2n1 [Compound 14] — 32-fold lower, 39.8 nM
- COC(=O)c1ccc2nc(C)cc(Nc3ccc(NCCc4c[nH]c5ccccc45)cc3)c2c1 [Compound 15] — 25-fold lower, 50.1 nM
- COc1cc(Nc2ccnc3ccccc23)ccc1NCCc1c[nH]c2ccccc12 [Compound 16] — 32-fold lower, 39.8 nM
- c1ccc(COc2cc(Nc3ccnc4ccccc34)ccc2NCCc2c[nH]c3ccccc23)cc1 [Compound 17] — 2-fold lower, 631 nM
- NC(=O)C(Cc1c[nH]c2ccccc12)Nc1ccc(Nc2ccnc3ccccc23)cc1 (stereo not shown) [Compound 18] — 2.5-fold lower, 501 nM
- Cc1cc(Nc2ccc(NCCc3c[nH]c4ccccc34)cc2)c2cc(CO)ccc2n1 [Compound 19] — 6.3-fold lower, 200 nM
- COc1ccc2nc(C)cc(Nc3ccc(NCCc4c[nH]c5ccccc45)cc3)c2c1 [Compound 20] — 13-fold lower, 100 nM
- COc1cccc2c(Nc3ccc(NCCc4c[nH]c5ccccc45)cc3)ccnc12 [Compound 21] — 130-fold lower, 10 nM
- Cc1cccc2c(Nc3ccc(NCCc4c[nH]c5ccccc45)cc3)ccnc12 [Compound 22] — 63-fold lower, 20 nM
- O=[N+]([O-])c1cccc2c(Nc3ccc(NCCc4c[nH]c5ccccc45)cc3)ccnc12 [Compound 23] — 3.2-fold lower, 398 nM
- COc1ccc2nccc(Nc3ccc(NCCc4c[nH]c5ccccc45)cc3)c2c1 [Compound 24] — lower, < 10 nM
- Nc1cccc2c(Nc3ccc(NCCc4c[nH]c5ccccc45)cc3)ccnc12 [Compound 25] — 32-fold lower, 39.8 nM
- Clc1ccc2c(CCNc3ccc(Nc4ccnc5ccccc45)cc3)c[nH]c2c1 [Compound 26] — 13-fold lower, 100 nM
- Oc1cccc2c(Nc3ccc(NCCc4c[nH]c5ccccc45)cc3)ccnc12 [Compound 27] — 16-fold lower, 79.4 nM
- Cn1cc(CCNc2ccc(Nc3ccnc4ccccc34)cc2)c2ccccc21 [Compound 28] — 6.3-fold lower, 200 nM
- N#Cc1ccc2nccc(Nc3ccc(NCCc4c[nH]c5ccccc45)cc3)c2c1 [Compound 29] — 5-fold lower, 251 nM
- CCCc1cc(Nc2ccc(NCCc3c[nH]c4ccccc34)cc2)c2ccccc2n1 [Compound 30] — 4-fold lower, 316 nM
- COc1ccc2[nH]cc(CCNc3ccc(Nc4ccnc5ccccc45)cc3)c2c1 [Compound 32] — 8-fold lower, 158 nM
- CCc1cc(Nc2ccc(NCCc3c[nH]c4ccccc34)cc2)c2ccccc2n1 [Compound 33] — 20-fold lower, 63.1 nM
- c1ccc2c(c1)NCC2CCNc1ccc(Nc2ccnc3ccccc23)cc1 (stereo not shown) [Compound 34] — 25-fold lower, 50.1 nM
- CCOc1cc(Nc2ccnc3ccccc23)ccc1NCCc1c[nH]c2ccccc12 [Compound 35] — 32-fold lower, 39.8 nM
- c1ccc2c(CCNc3ccc(Nc4ccncc4)cc3)c[nH]c2c1 [Compound 36] — 6.3-fold lower, 200 nM
- OCc1cc(Nc2ccc(NCCc3c[nH]c4ccccc34)cc2)ccn1 [Compound 37] — 8-fold lower, 158 nM
- c1ccc(-c2cc(Nc3ccc(NCCc4c[nH]c5ccccc45)cc3)ccn2)cc1 [Compound 39] — 2-fold lower, 631 nM
- Clc1cc(Nc2ccncc2)ccc1NCCc1c[nH]c2ccccc12 [Compound 45] — within 1.5-fold, 1000 nM
- Cc1cc(Nc2ccc(NCCc3c[nH]c4ccccc34)cc2)ccn1 [Compound 46] — 5-fold lower, 251 nM
- Cc1cc(Nc2ccncc2)ccc1NCCc1c[nH]c2ccccc12 [Compound 47] — 8-fold lower, 158 nM
- OCC(Cc1c[nH]c2ccccc12)Nc1ccc(Nc2ccncc2)cc1 (stereo not shown) [Compound 48] — 8-fold lower, 158 nM
- O=C(c1cc(Nc2ccc(NCCc3c[nH]c4ccccc34)cc2)ccn1)N1CCCC1 [Compound 49] — higher, > 10000 nM
- Clc1ccc2c(CCNc3ccc(Nc4ccncc4)cc3)c[nH]c2c1 [Compound 50] — 13-fold lower, 100 nM
- OCCc1cc(Nc2ccc(NCCc3c[nH]c4ccccc34)cc2)ccn1 [Compound 51] — 4-fold lower, 316 nM
- O=C(NCCO)c1cc(Nc2ccc(NCCc3c[nH]c4ccccc34)cc2)ccn1 [Compound 52] — 2.5-fold lower, 501 nM
- c1ccc2c(CCNc3ccc(Nc4ccnc(CN5CCCC5)c4)cc3)c[nH]c2c1 [Compound 53] — 2-fold lower, 631 nM
- COc1ccc2c(CCNc3ccc(Nc4ccncc4)cc3)c[nH]c2c1 [Compound 54] — 10-fold lower, 126 nM
- NCc1cc(Nc2ccc(NCCc3c[nH]c4ccccc34)cc2)ccn1 [Compound 55] — 2.5-fold lower, 501 nM
- O=C(c1ccccc1)c1cc(Nc2ccc(NCCc3c[nH]c4ccccc34)cc2)ccn1 [Compound 56] — 2-fold higher, 2510 nM
- OC(c1ccccc1)c1cc(Nc2ccc(NCCc3c[nH]c4ccccc34)cc2)ccn1 (stereo not shown) [Compound 57] — 1.6-fold lower, 794 nM
- O=C(O)c1cc(Nc2ccc(NCCc3c[nH]c4ccccc34)cc2)ccn1 [Compound 58] — higher, > 10000 nM
- CN(C)CCNCc1cc(Nc2ccc(NCCc3c[nH]c4ccccc34)cc2)ccn1 [Compound 59] — 3.2-fold lower, 398 nM
- Cc1cnccc1Nc1ccc(NCCc2c[nH]c3ccccc23)cc1 [Compound 60] — 13-fold lower, 100 nM
- c1ccc(COc2cc(Nc3ccncc3)ccc2NCCc2c[nH]c3ccccc23)cc1 [Compound 61] — 4-fold lower, 316 nM
- COc1ccc2[nH]cc(CCNc3ccc(Nc4ccncc4)cc3)c2c1 [Compound 62] — 2-fold higher, 2510 nM
- CNC(=O)c1cc(Nc2ccc(NCCc3c[nH]c4ccccc34)cc2)ccn1 [Compound 63] — within 1.5-fold, 1580 nM
- COCc1cc(Nc2ccc(NCCc3c[nH]c4ccccc34)cc2)ccn1 [Compound 64] — 3.2-fold lower, 398 nM
- NC(=O)C(Cc1c[nH]c2ccccc12)Nc1ccc(Nc2ccncc2)cc1 (stereo not shown) [Compound 65] — higher, > 10000 nM
- COc1cc(Nc2ccncc2)ccc1NCCc1c[nH]c2ccccc12 [Compound 66] — 20-fold lower, 63.1 nM
- O=C(OCc1ccccc1)C(Cc1c[nH]c2ccccc12)Nc1ccc(Nc2ccncc2)cc1 (stereo not shown) [Compound 67] — the same, 1260 nM
- c1ccc2c(c1)NCC2CCNc1ccc(Nc2ccncc2)cc1 (stereo not shown) [Compound 68] — 2-fold higher, 2510 nM
- CCOc1cc(Nc2ccnc(CO)c2)ccc1NCCc1c[nH]c2cc(OC)ccc12 [Compound 69] — 13-fold lower, 100 nM
- O=C(O)Cc1cc(Nc2ccc(NCCc3c[nH]c4ccccc34)cc2)ccn1 [Compound 70] — 5-fold lower, 251 nM
- c1ccc2c(CCCNc3ccc(Nc4ccncc4)cc3)c[nH]c2c1 [Compound 71] — 1.6-fold lower, 794 nM
- c1ccc2c(CCCNCc3ccc(Nc4ccncc4)cc3)c[nH]c2c1 [Compound 72] — 1.6-fold higher, 2000 nM
- c1ccc2c(CCCN(CCCc3c[nH]c4ccccc34)Cc3ccc(Nc4ccncc4)cc3)c[nH]c2c1 [Compound 73] — 2.5-fold lower, 501 nM
- c1ccc2c(CCCCNc3ccc(Nc4ccncc4)cc3)c[nH]c2c1 [Compound 74] — within 1.5-fold, 1580 nM
- c1ccc2c(CCNCCc3ccc(Nc4ccncc4)cc3)c[nH]c2c1 [Compound 75] — 2.5-fold higher, 3160 nM
- c1cncc(Nc2cccc(NCCc3c[nH]c4ccccc34)c2)c1 [Compound 76] — higher, > 10000 nM
- Cc1[nH]c2ccccc2c1CCNc1ccc(Nc2ccncc2)cc1 [Compound 77] — 2.5-fold higher, 3160 nM
- c1cncc(Nc2ccc(NCc3c[nH]c4ccccc34)cc2)c1 [Compound 78] — 7.9-fold higher, 10000 nM
- c1ccc2c(CNCc3ccc(Nc4ccncc4)cc3)c[nH]c2c1 [Compound 79] — 2-fold higher, 2510 nM
- O=C(CCc1c[nH]c2ccccc12)Nc1cccc(Nc2ccncc2)c1 [Compound 82] — higher, > 10000 nM
- CN(c1ccncc1)c1ccc(NCCc2c[nH]c3ccccc23)cc1 [Compound 83] — 2.5-fold higher, 3160 nM
- c1cc(NCCCc2c[nH]c3ccccc23)cc(Nc2ccncc2)c1 [Compound 84] — within 1.5-fold, 1580 nM
- COc1cc(NCCc2c[nH]c3ccccc23)ccc1Nc1ccncc1 [Compound 85] — 8-fold lower, 158 nM
- N#Cc1cc(Nc2ccc(NCCc3c[nH]c4ccccc34)cc2)ccn1 [Compound 86] — higher, > 10000 nM
- CC(NCCNC(=O)OCc1ccccc1)c1cc(Nc2ccc(NCCc3c[nH]c4ccccc34)cc2)ccn1 (stereo not shown) [Compound 88] — 2.5-fold higher, 3160 nM
- CC(NCCN)c1cc(Nc2ccc(NCCc3c[nH]c4ccccc34)cc2)ccn1 (stereo not shown) [Compound 89] — 3.2-fold higher, 3980 nM
- O=C(OCc1ccccc1)N1CCN(Cc2cc(Nc3ccc(NCCc4c[nH]c5ccccc45)cc3)ccn2)CC1 [Compound 90] — 2-fold higher, 2510 nM
- c1ccc2c(CCNc3ccc(Nc4ccnc(CN5CCNCC5)c4)cc3)c[nH]c2c1 [Compound 91] — 2-fold higher, 2510 nM
